Assay results published in PubChem BioAssay (NCI).
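Test compounds were applied to cells in 96-well plates for 48 hours at 5 doses. TGI is the concentration that stops growth completely.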

Legend:
Assay in all cases: growth of human tumour cells (NCI), 48 h
SF-295 CNS = system: SF-295 CNS
MDA-MB-435 = system: MDA-MB-435
SR leukemia = system: SR leukemia
OVCAR-4 ovarian = system: OVCAR-4 ovarian
K-562 leukemia = system: K-562 leukemia
SK-MEL-28 melanoma = system: SK-MEL-28 melanoma
HS 578T breast = system: HS 578T breast
NCI-H460 lung = system: NCI-H460 lung
MCF7 breast = system: MCF7 breast
IGROV1 ovarian = system: IGROV1 ovarian
CCRF-CEM leukemia = system: CCRF-CEM leukemia
OVCAR-8 ovarian = system: OVCAR-8 ovarian
COLO 205 colon = system: COLO 205 colon
HCC-2998 colon = system: HCC-2998 colon
DU-145 prostate = system: DU-145 prostate
MALME-3M melanoma = system: MALME-3M melanoma
TK-10 renal = system: TK-10 renal
A549 NSCLC = system: A549 NSCLC
T-47D breast = system: T-47D breast
MDA-N = system: MDA-N
ACHN renal = system: ACHN renal
NCI/ADR-RES ovarian = system: NCI/ADR-RES ovarian
M14 melanoma = system: M14 melanoma
LOX IMVI melanoma = system: LOX IMVI melanoma
MOLT-4 leukemia = system: MOLT-4 leukemia
OVCAR-5 ovarian = system: OVCAR-5 ovarian
CAKI-1 renal = system: CAKI-1 renal
SN12C renal = system: SN12C renal
UO-31 renal = system: UO-31 renal
HCT-116 colon = system: HCT-116 colon
HOP-92 NSCLC = system: HOP-92 NSCLC
RXF 393 renal = system: RXF 393 renal
786-0 renal = system: 786-0 renal
KM12 colon = system: KM12 colon
UACC-62 melanoma = system: UACC-62 melanoma
NCI-H23 lung = system: NCI-H23 lung
SF-539 CNS = system: SF-539 CNS
HOP-62 NSCLC = system: HOP-62 NSCLC
SNB-75 CNS = system: SNB-75 CNS
SF-268 CNS = system: SF-268 CNS
OVCAR-3 ovarian = system: OVCAR-3 ovarian
RPMI-8226 leukemia = system: RPMI-8226 leukemia
HT29 colon = system: HT29 colon
SW-620 colon = system: SW-620 colon
SNB-19 CNS = system: SNB-19 CNS
HL-60(TB) leukemia = system: HL-60(TB) leukemia
UACC-257 melanoma = system: UACC-257 melanoma
A498 renal = system: A498 renal
PC-3 prostate = system: PC-3 prostate
U251 CNS = system: U251 CNS
BT-549 breast = system: BT-549 breast
NCI-H226 lung = system: NCI-H226 lung
HCT-15 colon = system: HCT-15 colon
NCI-H522 lung = system: NCI-H522 lung
EKVX NSCLC = system: EKVX NSCLC
SK-MEL-5 melanoma = system: SK-MEL-5 melanoma
SK-OV-3 ovarian = system: SK-OV-3 ovarian
MDA-MB-231 breast = system: MDA-MB-231 breast
SK-MEL-2 melanoma = system: SK-MEL-2 melanoma

`O=c1[nH]nc(-c2ccccc2)n1/N=C/c1ccncc1` was tested, and the TGI (SF-295 CNS) was > 100 µM, the TGI (MDA-MB-435) was > 100 µM and the TGI (SR leukemia) was > 100 µM. The TGI (OVCAR-4 ovarian) was > 100 µM, the TGI (K-562 leukemia) was > 100 µM and the TGI (SK-MEL-28 melanoma) was > 100 µM. For the same compound, the TGI (HS 578T breast) was 97.3 µM, the TGI (NCI-H460 lung) was > 100 µM and the TGI (MCF7 breast) was > 100 µM. For the same compound, the TGI (IGROV1 ovarian) was > 100 µM, the TGI (CCRF-CEM leukemia) was > 100 µM and the TGI (OVCAR-8 ovarian) was > 100 µM. For the same compound, the TGI (COLO 205 colon) was > 100 µM, the TGI (HCC-2998 colon) was > 100 µM and the TGI (DU-145 prostate) was > 100 µM. The TGI (MALME-3M melanoma) was > 100 µM, the TGI (TK-10 renal) was > 100 µM and the TGI (A549 NSCLC) was > 100 µM. The TGI (T-47D breast) was > 100 µM, the TGI (MDA-N) was > 100 µM and the TGI (ACHN renal) was > 100 µM. For the same compound, the TGI (NCI/ADR-RES ovarian) was > 100 µM, the TGI (M14 melanoma) was > 100 µM and the TGI (LOX IMVI melanoma) was > 100 µM. For the same compound, the TGI (MOLT-4 leukemia) was > 100 µM, the TGI (OVCAR-5 ovarian) was > 100 µM and the TGI (CAKI-1 renal) was > 100 µM. The TGI (SN12C renal) was > 100 µM, the TGI (UO-31 renal) was > 100 µM and the TGI (HCT-116 colon) was > 100 µM. The TGI (HOP-92 NSCLC) was > 100 µM, the TGI (RXF 393 renal) was > 100 µM and the TGI (786-0 renal) was > 100 µM. The TGI (KM12 colon) was > 100 µM, the TGI (UACC-62 melanoma) was > 100 µM and the TGI (NCI-H23 lung) was > 100 µM. The TGI (SF-539 CNS) was > 100 µM, the TGI (HOP-62 NSCLC) was > 100 µM and the TGI (SNB-75 CNS) was > 100 µM. The TGI (SF-268 CNS) was > 100 µM, the TGI (OVCAR-3 ovarian) was > 100 µM and the TGI (RPMI-8226 leukemia) was > 100 µM. For the same compound, the TGI (HT29 colon) was > 100 µM, the TGI (SW-620 colon) was > 100 µM and the TGI (SNB-19 CNS) was > 100 µM. For the same compound, the TGI (HL-60(TB) leukemia) was > 100 µM, the TGI (UACC-257 melanoma) was > 100 µM and the TGI (A498 renal) was 71.6 µM. The TGI (PC-3 prostate) was > 100 µM, the TGI (U251 CNS) was > 100 µM and the TGI (BT-549 breast) was > 100 µM. The TGI (NCI-H226 lung) was > 100 µM, the TGI (HCT-15 colon) was > 100 µM and the TGI (NCI-H522 lung) was > 100 µM. The TGI (EKVX NSCLC) was > 100 µM and the TGI (SK-MEL-5 melanoma) was > 100 µM.
`COc1ccc(O[C@H](COCc2ccccc2)C[C@@H]2COC(C)(C)O2)cc1` was tested, and the TGI (SF-295 CNS) was > 100 µM, the TGI (SK-OV-3 ovarian) was > 100 µM and the TGI (MDA-MB-435) was > 100 µM. The TGI (SR leukemia) was > 100 µM, the TGI (OVCAR-4 ovarian) was > 100 µM and the TGI (K-562 leukemia) was > 100 µM. For the same compound, the TGI (SK-MEL-28 melanoma) was > 100 µM, the TGI (NCI-H460 lung) was > 100 µM and the TGI (MCF7 breast) was > 100 µM. The TGI (IGROV1 ovarian) was > 100 µM, the TGI (CCRF-CEM leukemia) was > 100 µM and the TGI (OVCAR-8 ovarian) was > 100 µM. For the same compound, the TGI (COLO 205 colon) was > 100 µM, the TGI (HCC-2998 colon) was > 100 µM and the TGI (DU-145 prostate) was > 100 µM. The TGI (MALME-3M melanoma) was > 100 µM, the TGI (TK-10 renal) was > 100 µM and the TGI (A549 NSCLC) was > 100 µM. The TGI (MDA-N) was > 100 µM, the TGI (MDA-MB-231 breast) was > 100 µM and the TGI (ACHN renal) was > 100 µM. For the same compound, the TGI (NCI/ADR-RES ovarian) was > 100 µM, the TGI (M14 melanoma) was > 100 µM and the TGI (LOX IMVI melanoma) was > 100 µM. The TGI (MOLT-4 leukemia) was > 100 µM, the TGI (OVCAR-5 ovarian) was > 100 µM and the TGI (CAKI-1 renal) was > 100 µM. The TGI (SN12C renal) was > 100 µM, the TGI (SK-MEL-2 melanoma) was > 100 µM and the TGI (UO-31 renal) was > 100 µM. The TGI (HCT-116 colon) was > 100 µM, the TGI (RXF 393 renal) was > 100 µM and the TGI (786-0 renal) was > 100 µM. The TGI (KM12 colon) was > 100 µM, the TGI (UACC-62 melanoma) was > 100 µM and the TGI (NCI-H23 lung) was > 100 µM. For the same compound, the TGI (SF-539 CNS) was > 100 µM, the TGI (HOP-62 NSCLC) was > 100 µM and the TGI (SNB-75 CNS) was > 100 µM. The TGI (SF-268 CNS) was > 100 µM, the TGI (OVCAR-3 ovarian) was > 100 µM and the TGI (RPMI-8226 leukemia) was > 100 µM. For the same compound, the TGI (HT29 colon) was > 100 µM, the TGI (SW-620 colon) was > 100 µM and the TGI (SNB-19 CNS) was > 100 µM. The TGI (UACC-257 melanoma) was > 100 µM, the TGI (A498 renal) was > 100 µM and the TGI (PC-3 prostate) was > 100 µM. For the same compound, the TGI (U251 CNS) was > 100 µM, the TGI (BT-549 breast) was > 100 µM and the TGI (NCI-H226 lung) was > 100 µM. The TGI (HCT-15 colon) was > 100 µM, the TGI (NCI-H522 lung) was > 100 µM and the TGI (EKVX NSCLC) was > 100 µM. For the same compound, the TGI (SK-MEL-5 melanoma) was > 100 µM.
In the case of `COc1ccccc1C1SCC(=O)N1c1ccc(-c2ccc(-n3c(-c4ccccc4)nc4ccccc4c3=O)cc2)cc1` (stereo unspecified), the TGI (SF-295 CNS) is reported as > 100 µM, the TGI (SK-OV-3 ovarian) is reported as > 100 µM and the TGI (MDA-MB-435) is reported as > 100 µM. For the same compound, the TGI (K-562 leukemia) was > 100 µM, the TGI (SK-MEL-28 melanoma) was > 100 µM and the TGI (HS 578T breast) was > 100 µM. For the same compound, the TGI (NCI-H460 lung) was > 100 µM, the TGI (MCF7 breast) was > 100 µM and the TGI (IGROV1 ovarian) was > 100 µM. The TGI (CCRF-CEM leukemia) was > 100 µM, the TGI (OVCAR-8 ovarian) was > 100 µM and the TGI (COLO 205 colon) was > 100 µM. For the same compound, the TGI (HCC-2998 colon) was > 100 µM, the TGI (DU-145 prostate) was > 100 µM and the TGI (MALME-3M melanoma) was > 100 µM. The TGI (TK-10 renal) was > 100 µM, the TGI (A549 NSCLC) was > 100 µM and the TGI (T-47D breast) was > 100 µM. For the same compound, the TGI (MDA-N) was > 100 µM, the TGI (MDA-MB-231 breast) was > 100 µM and the TGI (ACHN renal) was > 100 µM. The TGI (NCI/ADR-RES ovarian) was > 100 µM, the TGI (M14 melanoma) was > 100 µM and the TGI (LOX IMVI melanoma) was > 100 µM. The TGI (MOLT-4 leukemia) was > 100 µM, the TGI (OVCAR-5 ovarian) was > 100 µM and the TGI (CAKI-1 renal) was > 100 µM. The TGI (SN12C renal) was > 100 µM, the TGI (SK-MEL-2 melanoma) was > 100 µM and the TGI (UO-31 renal) was > 100 µM. The TGI (HCT-116 colon) was > 100 µM, the TGI (786-0 renal) was > 100 µM and the TGI (KM12 colon) was > 100 µM. For the same compound, the TGI (UACC-62 melanoma) was > 100 µM, the TGI (NCI-H23 lung) was > 100 µM and the TGI (SF-539 CNS) was > 100 µM. For the same compound, the TGI (HOP-62 NSCLC) was > 100 µM, the TGI (SNB-75 CNS) was > 100 µM and the TGI (SF-268 CNS) was > 100 µM. The TGI (OVCAR-3 ovarian) was > 100 µM, the TGI (RPMI-8226 leukemia) was > 100 µM and the TGI (HT29 colon) was > 100 µM. For the same compound, the TGI (SW-620 colon) was > 100 µM, the TGI (SNB-19 CNS) was > 100 µM and the TGI (HL-60(TB) leukemia) was > 100 µM. The TGI (UACC-257 melanoma) was > 100 µM, the TGI (A498 renal) was > 100 µM and the TGI (PC-3 prostate) was > 100 µM. For the same compound, the TGI (U251 CNS) was > 100 µM, the TGI (BT-549 breast) was > 100 µM and the TGI (NCI-H226 lung) was > 100 µM. The TGI (HCT-15 colon) was > 100 µM, the TGI (NCI-H522 lung) was > 100 µM and the TGI (EKVX NSCLC) was > 100 µM. For the same compound, the TGI (SK-MEL-5 melanoma) was > 100 µM.
